Some test systems named below: Malme-3M; SNB-75; HL-60; KM12; UACC-257; U-251; MDA-N; HOP-62; MDA-MB-435; SK-MEL-28; OVCAR-5; NCI-H23; A549; IGROV-1; RPMI-8226; LOX IMVI; HOP-92; MDA-MB-231; ACHN.
Test in all cases: DTP human tumour cell line panel, 48 h

Molecules are shown by their SMILES.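 Where inhibition never reached the appropriate level, the endpoint shown equals the highest concentration tested. Otherwise, values were interpolated linearly from a five-concentration, 48-hour dose response in 96-well plates. GI50 marks 50% less growth.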 Activity calls are given as the source filed them. Cut-off read from the data, not from the text of the source: active = GI50 up to about 1.1 µM and inactive = higher.

One may read the GI50 as the concentration giving 50% growth inhibition. Regarding `COC(=O)[C@@H]1c2c(oc3cc(CO)cc(O)c3c2=O)C=C[C@H]1O`, the GI50 with Malme-3M was 1.74 µM (inactive); in the experiment on SNB-75, 17.9 µM (inactive); with HL-60 it was 2.25 µM (inactive); in the experiment with KM12, 3.71 µM (inactive); with UACC-257 it was 8.85 µM (inactive); with U-251, 10.5 µM (inactive). In addition, the GI50 is 4.59 µM (inactive) with MDA-N; 17.9 µM (inactive) in the experiment on HOP-62; 4.15 µM (inactive) in the experiment on MDA-MB-435; 4.16 µM (inactive) in the experiment on SK-MEL-28; 9.51 µM (inactive) in the experiment on OVCAR-5; 19 µM (inactive) with NCI-H23. The GI50 with A549 was 16.8 µM (inactive); in the experiment on IGROV-1, 10.8 µM (inactive); in the experiment on RPMI-8226, 2.49 µM (inactive); in the experiment on LOX IMVI it was 3.32 µM (inactive); with HOP-92 it was 8.63 µM (inactive); in the experiment with MDA-MB-231 it was 14.1 µM (inactive).

For the compound `COC(=O)[C@@H](Cc1ccccc1)N1O[C@]12CCCC[C@@H]2NC(=O)OC(C)(C)C` (stereo partly drawn), the GI50 with Malme-3M is 22.1 µM (inactive); in the experiment with SNB-75, 30.4 µM (inactive); with KM12, 48 µM (inactive); in the experiment with UACC-257, 36.4 µM (inactive); in the experiment on U-251, 26.9 µM (inactive); with MDA-N, 20.4 µM (inactive). The GI50 with HOP-62 was 18.6 µM (inactive); in the experiment with MDA-MB-435, 25.8 µM (inactive); with SK-MEL-28, 22.1 µM (inactive); in the experiment with ACHN, 18.5 µM (inactive); in the experiment with OVCAR-5, 25.1 µM (inactive); in the experiment with NCI-H23 it was 21.3 µM (inactive). The GI50 in the experiment on A549 is 29.2 µM (inactive); in the experiment with IGROV-1, 14.7 µM (inactive); in the experiment on RPMI-8226, 44.5 µM (inactive); in the experiment on HOP-92 it was 21.3 µM (inactive); in the experiment with MDA-MB-231 it was 19.5 µM (inactive).

Turning to `FC(F)(F)c1ccccc1C1SCC2=Nc3ccccc3CN21` (stereo not drawn), the GI50 in the experiment on SNB-75 is 14 µM (inactive); in the experiment with HL-60, 21.3 µM (inactive); with KM12, 12.9 µM (inactive); in the experiment on UACC-257, 15.9 µM (inactive); in the experiment on U-251, 28.4 µM (inactive); in the experiment with MDA-N, 29.5 µM (inactive). Further, the GI50 was 11.1 µM (inactive) in the experiment with HOP-62; 22.5 µM (inactive) with MDA-MB-435; 19.3 µM (inactive) with SK-MEL-28; 12 µM (inactive) in the experiment with OVCAR-5; 11.9 µM (inactive) in the experiment with NCI-H23; 14.5 µM (inactive) with A549. Besides, the GI50 was 16.1 µM (inactive) in the experiment with IGROV-1; 24.8 µM (inactive) in the experiment on RPMI-8226; 15.1 µM (inactive) in the experiment on LOX IMVI; 17 µM (inactive) in the experiment with HOP-92; 23.5 µM (inactive) in the experiment on MDA-MB-231.

In the case of `O[C@H]1[C@H]2[C@H](O)C[C@H](CCOCc3ccccc3)CN2C[C@H]1O`, the GI50 was > 100 µM (inactive) in the experiment on Malme-3M; 45.4 µM (inactive) with SNB-75; > 100 µM (inactive) in the experiment on HL-60; > 100 µM (inactive) in the experiment on KM12; > 100 µM (inactive) with UACC-257; > 100 µM (inactive) in the experiment with U-251. For the same compound, the GI50 in the experiment with MDA-N, in the experiment on MDA-MB-435, in the experiment with SK-MEL-28, in the experiment with ACHN, in the experiment with OVCAR-5 and in the experiment on NCI-H23 was > 100 µM (inactive) in each case. Besides, the GI50 in the experiment on A549, with IGROV-1, in the experiment on RPMI-8226, in the experiment on LOX IMVI, in the experiment on HOP-92 and with MDA-MB-231 was > 100 µM (inactive) each time.

`CCOP(=O)(OCC)C(N)Cc1ccc(OC)c(OC)c1` (stereo not drawn): the GI50 in the experiment on Malme-3M, in the experiment with SNB-75, in the experiment with HL-60, in the experiment with KM12, in the experiment on UACC-257 and in the experiment on U-251 was > 100 µM (inactive) in each case. For the same compound, the GI50 in the experiment with MDA-N, in the experiment on MDA-MB-435, in the experiment on SK-MEL-28, in the experiment on ACHN, in the experiment on OVCAR-5 and in the experiment on NCI-H23 was > 100 µM (inactive) in each case. For the same compound, the GI50 in the experiment on A549, in the experiment with IGROV-1, in the experiment with RPMI-8226, in the experiment with HOP-92 and with MDA-MB-231 was > 100 µM (inactive) in each case.

`COc1ccc(/C=C2/S/C(=N\c3ccccc3)N(NC(=O)Cc3ccccc3)C2=O)cc1`: the GI50 in the experiment on SNB-75, in the experiment with HL-60, in the experiment on KM12, in the experiment with UACC-257, in the experiment with U-251 and with MDA-N was > 100 µM (inactive) throughout. In addition, the GI50 in the experiment with HOP-62, in the experiment with MDA-MB-435, in the experiment with SK-MEL-28, in the experiment on ACHN, in the experiment with OVCAR-5 and with NCI-H23 was > 100 µM (inactive) in each case. Besides, the GI50 in the experiment with A549, in the experiment with IGROV-1, with RPMI-8226, in the experiment on HOP-92 and in the experiment on MDA-MB-231 was > 100 µM (inactive) in each case.

`CC(C)C(=O)Oc1cc2c(=O)oc3c(OC(=O)C(C)C)c(OC(=O)C(C)C)cc4c(=O)oc(c1OC(=O)C(C)C)c2c34`: the GI50 in the experiment on Malme-3M, in the experiment with SNB-75, with KM12, with UACC-257, with U-251 and in the experiment on MDA-N was > 100 µM (inactive) each time. Moreover, the GI50 in the experiment with HOP-62, in the experiment on MDA-MB-435, with SK-MEL-28, in the experiment with ACHN, with OVCAR-5 and in the experiment with NCI-H23 was > 100 µM (inactive) in each case. Further, the GI50 in the experiment on A549, in the experiment with IGROV-1, with RPMI-8226, in the experiment on LOX IMVI, in the experiment with HOP-92 and with MDA-MB-231 was > 100 µM (inactive) in each case.

`c1ccc(CNc2ncnc3nn[nH]c23)cc1`: the GI50 in the experiment with Malme-3M, with SNB-75, in the experiment with HL-60, with KM12, in the experiment with UACC-257 and with U-251 was > 100 µM (inactive) throughout. In addition, the GI50 with MDA-N, with HOP-62, in the experiment with MDA-MB-435, in the experiment on SK-MEL-28, in the experiment on ACHN and in the experiment with OVCAR-5 was > 100 µM (inactive) in each case. Besides, the GI50 with NCI-H23 was > 100 µM (inactive); with A549, > 100 µM (inactive); with IGROV-1, > 100 µM (inactive); in the experiment on LOX IMVI it was > 100 µM (inactive); with HOP-92 it was 56.8 µM (inactive); in the experiment with MDA-MB-231 it was > 100 µM (inactive).

Regarding `O=[N+]([O-])c1ccc2nc(Cl)n[n+]([O-])c2c1`, the GI50 with Malme-3M was 15.9 µM (inactive); in the experiment on SNB-75 it was 14.4 µM (inactive); in the experiment on HL-60, 0.668 µM (active); in the experiment on KM12, 23.2 µM (inactive); in the experiment on UACC-257, 15.4 µM (inactive); in the experiment with U-251, 16.6 µM (inactive). Also, the GI50 is 11.6 µM (inactive) in the experiment with MDA-N; 17.1 µM (inactive) in the experiment on HOP-62; 13.8 µM (inactive) with MDA-MB-435; 18.3 µM (inactive) with SK-MEL-28; 14 µM (inactive) with ACHN; 17 µM (inactive) in the experiment with OVCAR-5. Also, the GI50 in the experiment on NCI-H23 was 15.3 µM (inactive); with A549, 22 µM (inactive); in the experiment on IGROV-1 it was 10.3 µM (inactive); in the experiment on RPMI-8226, 2.89 µM (inactive); with LOX IMVI it was 1.8 µM (inactive); in the experiment on MDA-MB-231, 11.7 µM (inactive).

Take `OC[C@H]1C[C@@H]2Cc3ccccc3N2N1`: the GI50 in the experiment on Malme-3M, in the experiment with SNB-75, with HL-60, with KM12, in the experiment with UACC-257 and in the experiment with U-251 was > 100 µM (inactive) in each case. In addition, the GI50 in the experiment with MDA-N, in the experiment with HOP-62, in the experiment with MDA-MB-435, in the experiment on SK-MEL-28, with ACHN and in the experiment on OVCAR-5 was > 100 µM (inactive) each time. For the same compound, the GI50 in the experiment on NCI-H23, in the experiment with A549, in the experiment with IGROV-1, in the experiment with LOX IMVI, with HOP-92 and with MDA-MB-231 was > 100 µM (inactive) each time.

As to `OCC12C3C4C5C3C1C5C42` (stereo not drawn), the GI50 in the experiment with Malme-3M, with SNB-75, in the experiment with HL-60, in the experiment on UACC-257, in the experiment on U-251 and in the experiment with MDA-N was > 100 µM (inactive) in each case. Besides, the GI50 in the experiment with HOP-62, in the experiment on MDA-MB-435, with SK-MEL-28, with ACHN, in the experiment on OVCAR-5 and in the experiment with NCI-H23 was > 100 µM (inactive) in each case. For the same compound, the GI50 with A549 was > 100 µM (inactive); in the experiment with IGROV-1, 47.3 µM (inactive); in the experiment on LOX IMVI, > 100 µM (inactive); in the experiment on HOP-92 it was > 100 µM (inactive); in the experiment on MDA-MB-231, > 100 µM (inactive).

The values are drawn from ChEMBL document CHEMBL1201862, “PubChem BioAssay data set” (2004).
